The structures appear in SMILES notation. “Also recorded” adds a separate entry of the source.

Series [1] relates to Streptomyces natalensis (wild type and npi287 mutant). The series is described as follows: Stimulation of sporulation of Streptomyces natalensis. It is filed as cell-based.
Series [2] concerns Streptomyces griseus HH1. The series is described as follows: Restoration of streptomycin production in the A factor negative strain. It is filed as cell-based. The conditions noted are these: HPLC-pure IP factor, Streptomyces griseus HH1 mutant. The source says:
In the examples given below, the following strains were used: The wild type Streptomyces natalensis ATCC 27448 was used as the parental strain to isolate different npi mutants. Streptomyces natalensis cultures were maintained in solid TBO sporulation medium (containing 20 g tomato paste per liter; 25 g oat meal per liter; and 25 g agar per liter) as described by Aparicio et al. (Chem. Biol. 7, 895-905, 2000). Candida utilis CECT 1061 (synonym Pichia jadinii) was used as test strain in the bioassay of the antifungal activity of natamycin. Cultures of Streptomyces griseus IFO 13350 (formerly described as Streptomyces bikiniensis IFO 13350) were used to produce A factor in YMPG medium (Horinouchi et al., J. Antibiot. 38, 636-641, 1985). Streptomyces griseus HH1 (an A factor negative strain) was used to quantify the A factor inducing activity.
The Streptomyces griseus 35570 A factor was purified by following its biological activity on the test strain Streptomyces griseus HH1, a mutant lacking streptomycin production due to its deficiency in A factor biosynthesis.

Series [3] in a line: Solvent extraction of clarified culture broth (partition between organic and aqueous phase). It is filed as physicochemical. On the procedure:
The culture broth (15 liters) from Streptomyces natalensis wild type strain grown for 24 h in YED medium in a Braun Biostat C fermentor was concentrated 10-fold in a vacuum evaporator. The concentrated broth was clarified by precipitating the proteins with 6M HCl at pH 3.0 in the cold room. The clarified broth was adjusted to pH 7.0 with concentrated NaOH and extracted. […] Enough IP factor could be extracted by repeated extractions with ethyl acetate to allow a good purification. The organic phases were then collected and concentrated to dryness under vacuum and the resultant product was dissolved in 100 ml of 10% methanol (v/v) and applied to an active carbon column (30×3 cm) previously equilibrated with the same solvent (10% methanol, v/v). The retained compounds including the IP factor were fractionated by stepwise elution (flow 2 ml/min) with 50% methanol (v/v), 100% methanol, 10% ethyl acetate in methanol (v/v), 50% ethyl acetate in methanol (v/v), and pure ethyl acetate (100%). […] The IP factor-containing fraction was then concentrated, applied onto a Sephadex GIO column (2000×1 cm) and eluted with distilled water (flow 0.8 ml/min). This size exclusion chromatography yielded 40 ml of active fractions.

Series [4] concerns Streptomyces natalensis ATCC 27448. The series is described as follows: Natamycin production in liquid cultures of the wild type strain with exogenous auto inducer. Format: cell-based. The note with it: 300 nM. From the text:
FIG. 3A: Cell dry weight (▪); y-axis: dry weight concentration in mg/ml; x-axis: time in hours. FIG. 3B: (▴) Control without IP factor addition; (O) with IP factor addition; y-axis: natamycin concentration in μg/ml; x-axis: time in hours.
FIG. 4A: Cell dry weight (♦); y-axis: dry weight concentration in mg/ml; x-axis: time in hours. FIG. 4B: (▪) Control without IP factor addition; (□) with IP factor addition; y-axis: natamycin concentration in μg/ml; x-axis: time in hours.
FIG. 5A: Cell dry weight (▴); y-axis: dry weight concentration in mg/ml; x-axis: time in hours. FIG. 5B: (▪) Control without IP factor addition; (□) with IP factor addition; y-axis: natamycin concentration in μg/ml; x-axis: time in hours.
Four different complex media were used for quantification of the IP factor concentration and its relationship to natamycin production. These include: NBG medium (OXOID) supplemented with glucose (5 g/l); YEME medium (yeast extract 3 g/l; peptone […]; malt extract 3 g/l and glucose 10 g/l); TSB medium (DIFCO) and YED medium (yeast extract 10 g/l; glucose 10 g/l). In addition two defined media were also used to quantify the inducer production: Streptomyces MM (Kieser et al. in “Practical Streptomyces Genetics”, John Innes Foundation, Norwich, UK, 2000) and Lechevalier defined medium (Martin and McDaniel, Eur. J. Appl. Microbiol. 3, 135-144, 1976).
The production of natamycin in liquid cultures was routinely quantified by spectrophotometric determination at 319 nm. A 0.5 ml aliquot of the culture was extracted with 5 ml of methanol and diluted with distilled water; the concentration of natamycin was quantified as described previously (Aparicio et al. (Chem. Biol. 7, 895-905, 2000)) using a pure sample of natamycin (Sigma Chem. Co) as standard.

The test system of series [5] is Streptomyces natalensis npi287. The series is described as follows: Inducer bioassay: induction of natamycin production in mutant npi287 on solid SPG medium, read as inhibition zone in a Candida utilis overlay. The conditions noted are these: for inducing activity on natamycin production by npi287: bioassay, Streptomyces natalensis npi287. It is filed as cell-based. How it is done: Dose-response representation is obtained from measuring points at 0, 110, 166, 220, 333, 446 and 500 nM of IP factor. Y-axis: natamycin-induced inhibition zone diameter in Candida utilis overlays in cm (see Example 5); x-axis: concentration of IP factor in nM.
The biological activity of IP factor was determined by its ability to induce natamycin production by mutant strain Streptomyces natalensis npi287 in solid SPG medium. After allowing growth of Streptomyces natalensis npi287 for 2 days at 30° C., samples of culture broths […] or different fractions from IP factor purification were added to wells (7 mm diameter) in the agar layer. The plate was overlaid with a culture of Candida utilis and incubated for 24 h at 28° C. The increment of the diameter of the natamycin inhibition zone after induction of natamycin in strain npi287 was proportional to the amount of IP factor in the sample.
The availability of the pure IP factor made it possible to quantify its inducing effect using the standard inducer assay with the npi287 strain (FIG. 2). […] The IP factor increased two-fold the diameter of natamycin inhibition zone (to above 50 millimeters) at concentration of 350 nM and the assay was saturated at concentrations above 400 nM. A threshold level of IP factor of about 50 nM was always required to detect the induction of natamycin production.

Series [6] relates to Streptomyces griseus HH1. The note with it: stated as well-known; cited from earlier work.

Regarding `NC(CO)(CO)C(N)(CO)CO` [IP factor, 2,3-diamino-2,3-bis(hydroxymethyl)-1,4-butanediol], the stimulation of sporulation entry in series [1] (npi287 mutant) and in series [1] (wild type Streptomyces natalensis) was “did not stimulate sporulation” in each case. For the same molecule, the “restoration of streptomycin production” value in series [2] was “negative”. The “part remaining in the aqueous phase” value in series [3] (ethyl acetate extraction at acidic, neutral or slightly basic (pH 7.5) pH) was “significant proportion”; in series [3] (repeated extraction with chloroform), “about 80%”. Further, the “production of natamycin on addition of exogenous inducer” value in series [4] (NBG medium, FIG. 4) is “stimulated”; in series [4] (TSB medium, FIG. 3), “stimulated”; in series [4] (YEME medium, FIG. 5) it was “stimulated”. In addition, the “diameter of natamycin inhibition zone” value in series [5] (350 nM IP factor) was “above 50 millimeters”. Moreover, the “fold increase of the diameter of natamycin inhibition zone” value in series [5] (350 nM IP factor) is given as “two-fold”. Further, the “inducing activity on natamycin production by npi287” value in series [5] was “strong inducing activity”. Also, the “threshold level required to detect induction of natamycin production” value in series [5] (standard inducer assay) is “about 50 nM”. The “IP factor concentration to which npi287 clearly responded” value in series [5] (standard inducer assay, FIG. 2) is given as 100 nM. In series [5] (standard inducer assay, FIG. 2), the “concentration above which the assay was saturated” value is listed as “above 400 nM”. In series [5] (standard inducer assay, FIG. 2), the “upper concentration of linear response of antibiotic production” value is “up to 350 nM”.

As for `CC(C)CCCCC(=O)[C@@H]1C(=O)OCC1CO` (stereo partly drawn) [A factor, 2-(6′-methylheptanoyl)-3R-hydroxymethyl-4-butanolide, reference compound], the “inducing activity on natamycin production by npi287” value in series [5] was “some inducing activity; also recorded: elicited natamycin production”. In series [6], the stimulation of sporulation result was “stimulation of sporulation”.
